Results as given in patent US8759535B2, “Substituted fused imidazole derivatives, pharmaceutical compositions, and methods of use thereof” (High Point Pharmaceuticals, LLC, priority 2010, dated 2014).
Where a name gives a salt, the structure may show the parent alone.

tested on: HMOX1; experiment: HMOX1 Protein Assay (immunostaining of HO-1 in NHLF cells, GE InCell 1000); assay type: cell-based; settings: Homo sapiens, fold change above DMSO treated cells, 3 μM compound (asterisk), 16 h
Procedure, shortened: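 NHLF cells seeded overnight in FGM-2, then exposed to compound or DMSO vehicle for 16 h, fixed, and immunostained for HO-1 with Hoechst nuclear counterstain; imaged on InCell 1000. Values are fold change over DMSO-treated cells, generally at 5 μM (0.8% DMSO), with asterisked entries at 3 μM.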

**Q.** C[C@@H](CO)CCNC(=O)c1ccc2c(c1)nc(Nc1nc3ccc(Cl)cc3s1)n2C [Example 224, 2-(6-Chloro-benzothiazol-2-ylamino)-1-methyl-1H-benzoimidazole-5-carboxylic acid ((R)-4-hydroxy-3-methyl-butyl)-amide] was tested. Which fold induction at 3 µM did it give?
**A.** 15.5

**Q.** C[C@@H](O)CN1CC[C@@H](NC(=O)c2ccc3c(c2)nc(Nc2nc4ccc(C(F)(F)F)cc4s2)n3C)C1 [Example 297, 1-Methyl-2-(6-trifluoromethyl-benzothiazol-2-ylamino)-1H-benzoimidazole-5-carboxylic acid [(R)-1-((R)-2-hydroxy-propyl)-pyrrolidin-3-yl]-amide] was tested. Which fold induction at 3 µM did it give?
**A.** 24.4

**Q.** With Cn1c(Nc2nc3ccc(OC(F)(F)F)cc3s2)nc2cc(C(=O)NCCCCN)ccc21 [Example 346, 1-Methyl-2-(6-trifluoromethoxy-benzothiazol-2-ylamino)-1H-benzoimidazole-5-carboxylic acid (4-amino-butyl)-amide hydrochloride] as the molecule, how does the fold induction at 3 µM read?
**A.** 12.9

**Q.** CCS(=O)(=O)CCNC(=O)c1ccc2c(c1)nc(Nc1nc3ccc(Cl)cc3s1)n2C [Example 277, 2-(6-Chloro-benzothiazol-2-ylamino)-1-methyl-1H-benzoimidazole-5-carboxylic acid (2-ethanesulfonyl-ethyl)-amide] was tested. Which fold induction at 3 µM did it give?
**A.** 38.3

same assay, conditions: Homo sapiens, fold change above DMSO treated cells, 5 μM compound, 16 h

**Q.** With CC(O)COCCNC(=O)c1ccc2c(c1)nc(Nc1nc3ccc(OC(F)(F)F)cc3s1)n2C (stereo not drawn) [Example 244, 1-Methyl-2-(6-trifluoromethoxy-benzothiazol-2-ylamino)-1H-benzoimidazole-5-carboxylic acid [2-(2-hydroxy-propoxy)-ethyl]-amide] as the molecule, how does the fold induction at 5 µM read?
**A.** 28

**Q.** For Cn1c(Nc2nc3ccc(OC(F)(F)F)cc3s2)nc2cc(C(=O)NCCOCCOCCO)ccc21 [Example 256, 1-Methyl-2-(6-trifluoromethoxy-benzothiazol-2-ylamino)-1H-benzoimidazole-5-carboxylic acid {2-[2-(2-hydroxy-ethoxy)-ethoxy]-ethyl}-amide], which fold induction at 5 µM is on record?
**A.** 48

**Q.** CN[C@H]1CCN(C(=O)CNC(=O)c2ccc3c(c2)nc(Nc2nc4ccc(OC(F)(F)F)cc4s2)n3C)C1 [Example 414, 1-Methyl-2-(6-trifluoromethoxy-benzothiazol-2-ylamino)-1H-benzoimidazole-5-carboxylic acid [2-((S)-3-methylamino-pyrrolidin-1-yl)-2-oxo-ethyl]-amide hydrochloride] was tested. Which fold induction at 5 µM did it give?
**A.** 25.7

**Q.** COc1cc2c(cc1C(=O)NCC(C)O)nc(Nc1nc3ccc(OC(F)(F)F)cc3s1)n2C (stereo not drawn) [Example 68, 6-Methoxy-1-methyl-2-(6-trifluoromethoxy-benzothiazol-2-ylamino)-1H-benzoimidazole-5-carboxylic acid (2-hydroxy-propyl)-amide] was tested. Which fold induction at 5 µM did it give?
**A.** 21.1

**Q.** How did the fold induction at 5 µM turn out when CC(O)CNC(=O)c1ccc2c(c1)nc(Nc1nc3ccc(OC(F)(F)F)cc3s1)n2C (stereo not drawn) [Example 21, 1-Methyl-2-(6-trifluoromethoxy-benzothiazol-2-ylamino)-1H-benzoimidazole-5-carboxylic acid (2-hydroxy-propyl)-amide] was run?
**A.** 19.6

**Q.** Which fold induction at 5 µM does the source give for Cn1c(Nc2nc3ccc(OC(F)(F)F)cc3s2)nc2cc(C(=O)NCCC3CCC(O)CC3)ccc21 (stereo not drawn) [Example 253, 1-Methyl-2-(6-trifluoromethoxy-benzothiazol-2-ylamino)-1H-benzoimidazole-5-carboxylic acid [2-(4-hydroxy-cyclohexyl)-ethyl]-amide] here?
**A.** 26.6

**Q.** With CC(=O)NCCNC(=O)c1ccc2c(c1)nc(Nc1nc3ccc(OC(F)(F)F)cc3s1)n2C [Example 100, 1-Methyl-2-(6-trifluoromethoxy-benzothiazol-2-ylamino)-1H-benzoimidazole-5-carboxylic acid (2-acetylamino-ethyl)-amide] as the molecule, how does the fold induction at 5 µM read?
**A.** 25.9

**Q.** With Cn1c(Nc2nc3ccc(Cl)cc3s2)nc2cc(C(=O)NCCO)ccc21 [Example 30, 2-(6-Chloro-benzothiazol-2-ylamino)-1-methyl-1H-benzoimidazole-5-carboxylic acid (2-hydroxy-ethyl)-amide] as the molecule, how does the fold induction at 5 µM read?
**A.** 21.4

**Q.** With CN[C@@H]1CCN(C(=O)CNC(=O)c2ccc3c(c2)nc(Nc2nc4ccc(OC(F)(F)F)cc4s2)n3C)C1 [Example 413, 1-Methyl-2-(6-trifluoromethoxy-benzothiazol-2-ylamino)-1H-benzoimidazole-5-carboxylic acid [2-((R)-3-methylamino-pyrrolidin-1-yl)-2-oxo-ethyl]-amide hydrochloride] as the molecule, how does the fold induction at 5 µM read?
**A.** 31.8

**Q.** How did the fold induction at 5 µM turn out when Cn1c(Nc2nc3ccc(OC(F)(F)F)cc3s2)nc2cc(-c3ncc[nH]3)ccc21 [Example 196, [5-(1H-Imidazol-2-yl)-1-methyl-1H-benzimidazol-2-yl]-(6-trifluoromethoxy-benzothiazol-2-yl)-amine] was run?
**A.** 11.4

**Q.** Cn1c(Nc2nc3ccc(Cl)cc3s2)nc2cc(C(=O)NCCOCCC#N)ccc21 [Example 266, 2-(6-Chloro-benzothiazol-2-ylamino)-1-methyl-1H-benzoimidazole-5-carboxylic acid [2-(2-cyano-ethoxy)-ethyl]-amide] was tested. Which fold induction at 5 µM did it give?
**A.** 57

**Q.** Which fold induction at 5 µM does the source give for CCOCCNC(=O)c1cnc2c(c1)nc(Nc1nc3ccc(OC(F)(F)F)cc3s1)n2C [Example 75, 3-Methyl-2-(6-trifluoromethoxy-benzothiazol-2-ylamino)-3H-imidazo[-4,5-b]pyridine-6-carboxylic acid (2-ethoxy-ethyl)-amide] here?
**A.** 29

**Q.** With CNC(=O)c1ccc2c(c1)nc(Nc1nc3ccc(OC(F)(F)F)cc3s1)n2C [Example 1, 1-Methyl-2-(6-trifluoromethoxy-benzothiazol-2-ylamino)-1H-benzoimidazole-5-carboxylic acid methyl amide] as the molecule, how does the fold induction at 5 µM read?
**A.** 19.4

**Q.** For CN1CCCCC1CNC(=O)c1ccc2c(c1)nc(Nc1nc3ccc(Cl)cc3s1)n2C (stereo not drawn) [Example 318, 2-(6-Chloro-benzothiazol-2-ylamino)-1-methyl-1H-benzoimidazole-5-carboxylic acid (1-methyl-piperidin-2-ylmethyl)-amide], which fold induction at 5 µM is on record?
**A.** 11.9

**Q.** How did the fold induction at 5 µM turn out when CNC(=O)c1ccc2c(c1)nc(Nc1nc3ccc(C(F)(F)F)cc3s1)n2C [Example 84, 1-Methyl-2-(6-trifluoromethyl-benzothiazol-2-ylamino)-1H-benzoimidazole-5-carboxylic acid methylamide] was run?
**A.** 19

**Q.** With CCn1c(Nc2nc3ccc(OC(F)(F)F)cc3s2)nc2cc(C(=O)O)ccc21 [Example 154, 1-Ethyl-2-(6-trifluoromethoxy-benzothiazol-2-ylamino)-1H-benzoimidazole-5-carboxylic acid] as the molecule, how does the fold induction at 5 µM read?
**A.** 27.1

**Q.** With C[C@H](NC(=O)c1ccc2c(c1)nc(Nc1nc3ccc(OC(F)(F)F)cc3s1)n2C)C(=O)O [Example 146, (S)-2-{[1-Methyl-2-(6-trifluoromethoxy-benzothiazol-2-ylamino)-1H-benzoimidazole-5-carbonyl]-amino}-propionic acid] as the molecule, how does the fold induction at 5 µM read?
**A.** 3.7

**Q.** How did the fold induction at 5 µM turn out when CNCC1CCN(C(=O)CNC(=O)c2ccc3c(c2)nc(Nc2nc4ccc(Cl)cc4s2)n3C)CC1 [Example 457, 2-(6-Chloro-benzothiazol-2-ylamino)-1-methyl-1H-benzoimidazole-5-carboxylic acid [2-(4-methylaminomethyl-piperidin-1-yl)-2-oxo-ethyl]-amide hydrochloride] was run?
**A.** 39.9

**Q.** With C[C@@H](CO)CCNC(=O)c1ccc2c(c1)nc(Nc1nc3ccc(OC(F)(F)F)cc3s1)n2C [Example 223, 1-Methyl-2-(6-trifluoromethoxy-benzothiazol-2-ylamino)-1H-benzoimidazole-5-carboxylic acid ((R)-4-hydroxy-3-methyl-butyl)-amide] as the molecule, how does the fold induction at 5 µM read?
**A.** 44.7

**Q.** CNCCn1c(Nc2nc3ccc(Cl)cc3s2)nc2cc(C(=O)NCC(=O)N(C)C)ccc21 [Example 367, 2-(6-Chloro-benzothiazol-2-ylamino)-1-(2-methylamino-ethyl)-1H-benzoimidazole-5-carboxylic acid dimethylcarbamoylmethyl-amide hydrochloride] was tested. Which fold induction at 5 µM did it give?
**A.** 25.4

**Q.** For CNC(=O)c1ccc2c(c1)nc(Nc1nc3ccc(OC(F)(F)F)cc3s1)n2C(C)C [Example 160, 1-Isopropyl-2-(6-trifluoromethoxy-benzothiazol-2-ylamino)-1H-benzoimidazole-5-carboxylic acid methylamide], which fold induction at 5 µM is on record?
**A.** 22.9

**Q.** With COCCn1c(Nc2nc3ccc(OC(F)(F)F)cc3s2)nc2cc(C(=O)O)ccc21 [Example 166, 1-(2-Methoxy-ethyl)-2-(6-trifluoromethoxy-benzothiazol-2-ylamino)-1H-benzoimidazole-5-carboxylic acid] as the molecule, how does the fold induction at 5 µM read?
**A.** 22.4

**Q.** Which fold induction at 5 µM does the source give for Cn1c(Nc2nc3ccc(OC(F)(F)F)cc3s2)nc2cc(C(=O)NCC(=O)N3CCC(Oc4ncccn4)CC3)ccc21 [Example 452, 1-Methyl-2-(6-trifluoromethoxy-benzothiazol-2-ylamino)-1H-benzoimidazole-5-carboxylic acid {2-oxo-2-[4-(pyrimidin-2-yloxy)-piperidin-1-yl]-ethyl}-amide] here?
**A.** 71.7

**Q.** COCCn1c(Nc2nc3ccc(Cl)cc3s2)nc2cc(C(=O)NCC(=O)N3CCN(C)CC3)ccc21 [Example 428, 2-(6-Chloro-benzothiazol-2-ylamino)-1-(2-methoxy-ethyl)-1H-benzoimidazole-5-carboxylic acid [2-(4-methyl-piperazin-1-yl)-2-oxo-ethyl]-amide] was tested. Which fold induction at 5 µM did it give?
**A.** 24.4

**Q.** Cn1c(Nc2nc3ccc(Cl)cc3s2)nc2cc(C(=O)NCC(=O)N3CCNCC3)ccc21 [Example 425, 2-(6-Chloro-benzothiazol-2-ylamino)-1-methyl-1H-benzoimidazole-5-carboxylic acid (2-oxo-2-piperazin-1-yl-ethyl)-amide hydrochloride] was tested. Which fold induction at 5 µM did it give?
**A.** 20.3

**Q.** Cn1c(Nc2nc3ccc(OC(F)(F)F)cc3s2)nc2cc(C(=O)NCCOCC(N)=O)ccc21 [Example 267, 1-Methyl-2-(6-trifluoromethoxy-benzothiazol-2-ylamino)-1H-benzoimidazole-5-carboxylic acid (2-carbamoylmethoxy-ethyl)-amide] was tested. Which fold induction at 5 µM did it give?
**A.** 58.8
